For one test, the system named is NCI-H1155. The test is described as follows: Cell viability (CellTiter-Glo), NCI-H1155. In kind it is cell-based. As to conditions: Homo sapiens; NCI-H1155 cell line, 3-4 days of culture. As to the method: (§1) Cell viability was detected using the Promega CellTiter-Glo kit, the kit reflected cell viability by directly measuring intracellular ATP content. The inhibitory effect (IC50 value) of Gboxin, a mitochondrial oxidative phosphorylation pathway inhibitor, on different tumor cell lines was tested in the Example. The name, source, and culture condition of each tumor cell line were as follows:
Cell line NCI-H1155 (ATCC, No. CRL-5818) was cultured in serum-free ACL-4 medium (+P/S).
(§2) The above tumor cells were cultured in the relevant medium (+P/S), and incubated for 3 h, then the gradient diluted Gboxin was added, and IC50 (50% inhibiting concentration) was measured after 3-4 days of culture.

For a further test, the system named is NCI-H1793. The test is described as follows: Cell viability (CellTiter-Glo), NCI-H1793. It counts as cell-based. The conditions noted are these: Homo sapiens; NCI-H1793 cell line, 3-4 days of culture. The procedure: as §1
Cell line NCI-H1793 (ATCC, No. CRL-5896) was cultured in 5% fetal bovine serum-containing HITES medium (+P/S).
as §2

Another test concerns Daoy. The test is described as follows: Cell viability (CellTiter-Glo), Daoy. The conditions noted are these: Homo sapiens; Daoy cell line, 3-4 days of culture. It counts as cell-based. As to the method:
as §1
Cell line Daoy (ATCC, No. HTB-186) was cultured in 10% fetal bovine serum-containing EMEM medium (+P/S).
as §2

The subject of the next test is SNU-398. The test is described as follows: Cell viability (CellTiter-Glo), SNU-398. It counts as cell-based. The conditions noted are these: Homo sapiens; SNU-398 cell line, 3-4 days of culture. As to the method: as §1
Cell line SNU-398 (ATCC, No. CRL-2233) was cultured in 10% fetal bovine serum-containing RPMI1640 medium (+P/S).
as §2

In test [1] the test system is NCI-H82 cell with overexpression of NNMT protein and/or knockdown of DNMT1 expression. The test is described as follows: Sensitivity of NCI-H82 after NNMT overexpression and/or DNMT1 knockdown, intracellular ATP detection. In kind it is cell-based, human. The conditions noted are these: FIG. 21, FIG. 22. The text has this:
The NCI-H82 cell overexpressing NNMT protein was obtained by inserting the NNMT gene into NCI-H82 cell using a viral vector. The expression of DNMT1 in NCI-H82 cells was knocked down using shRNA transfection. The changes in sensitivity of cells to mitochondrial oxidative phosphorylation pathway inhibitors (Gboxin, Oligomycin A) was investigated using intracellular ATP detection methods after overexpression of NNMT protein and/or knockdown of DNMT1 expression. The experiment result was shown in FIG. 21 and FIG. 22, wherein, “Vector” referred to NCI-H82 cell transfected with empty virus as control group.

A further test deals with OCI-AML-5. The test is described as follows: Cell viability (CellTiter-Glo), OCI-AML-5. In kind it is cell-based. The conditions noted are these: Homo sapiens; OCI-AML-5 cell line, 3-4 days of culture. As to the method:
as §1
Cell line OCI-AML-5 (DSMZ, No. ACC-247) was cultured in alpha-MEM medium containing 20% fetal bovine serum and 10% volume fraction of 5637 cell line adjusted medium (+P/S).
as §2

For another test, the system named is NCI-H1651. The test is described as follows: Cell viability (CellTiter-Glo), NCI-H1651. In kind it is cell-based. As to conditions: Homo sapiens; NCI-H1651 cell line, 3-4 days of culture. As to the method:
as §1
Cell line NCI-H1651 (ATCC, No. CRL-5884) was cultured in 10% fetal bovine serum-containing ACL-4 medium (+P/S).
as §2

The next test relates to SNU-449. The test is described as follows: Cell viability (CellTiter-Glo), SNU-449. As to conditions: Homo sapiens; SNU-449 cell line, 3-4 days of culture. It counts as cell-based. As to the method: as §1
Cell line SNU-449 (ATCC, No. CRL-2234) was cultured in 10% fetal bovine serum-containing RPMI1640 medium (+P/S).
as §2

The test system of a further test is DU 145. Put plainly: Cell viability (CellTiter-Glo), DU 145. In kind it is cell-based. The conditions noted are these: Homo sapiens; DU 145 cell line, 3-4 days of culture. As to the method:
as §1
Cell line DU 145 (ATCC, No. HTB-81) was cultured in 10% fetal bovine serum-containing EMEM medium (+P/S).
as §2

Test [2] concerns mitochondrial oxidative phosphorylation pathway. Put plainly: Oxygen consumption of NCI-H82 cell, Seahorse XFe metabolic analyzer. It counts as cell-based, human. As to conditions: 2 μM inhibitor, detection within 0.5 h, compared with control group, FIG. 1 (n=3). An excerpt:
The oxygen was mainly consumed by mitochondrial oxidative phosphorylation pathway in the cell, thus the determination of oxygen consumption rate (OCR) of mitochondria could directly reflect the activity of mitochondrial oxidative phosphorylation pathway. The oxygen consumption of NCI-H82 cell in the presence or absence of Oligomycin A, Gboxin, S-Gboxin and IACS-010759, mitochondrial oxidative phosphorylation pathway inhibitors, was detected using Seahorse XFe metabolic analyzer in the present Example. NCI-H82 cell (ATCC, No. […] The control group in absence of mitochondrial oxidative phosphorylation pathway inhibitor was set. The detection of cell oxygen consumption was finished within 0.5 h.

The subject of another test is ATN-1. The test is described as follows: Cell viability (CellTiter-Glo), ATN-1. In kind it is cell-based. The conditions noted are these: Homo sapiens; ATN-1 cell line, 3-4 days of culture. As to the method:
as §1
Cell line ATN-1 (RIKEN, No. RBRC-RCB1440) was cultured in RPMI1640 medium containing 10% fetal bovine serum and 0.1 mM NEAA (+P/S).
as §2

A further test relates to NCI-H1048. Put plainly: Cell viability (CellTiter-Glo), NCI-H1048. In kind it is cell-based. As to conditions: Homo sapiens; NCI-H1048 cell line, 3-4 days of culture. The procedure:
as §1
Cell line NCI-H1048 (ATCC, No. CRL-5853) was cultured in 5% fetal bovine serum-containing HITES medium (+P/S).
as §2

A further test concerns C3A. The test is described as follows: Cell viability (CellTiter-Glo), C3A. It counts as cell-based. The conditions noted are these: Homo sapiens; C3A cell line, 3-4 days of culture. As to the method: as §1
Cell line C3A (ATCC, No. CRL-10741) was cultured in 10% fetal bovine serum-containing EMEM medium (+P/S).
as §2

Another test relates to MDA-MB-453. The test is described as follows: Cell viability (CellTiter-Glo), MDA-MB-453. In kind it is cell-based. As to conditions: Homo sapiens; MDA-MB-453 cell line, 3-4 days of culture. As to the method: as §1, with “follows: Cell line MDA-MB-453 (ATCC, No. HTB-131) was cultured in 10% fetal bovine serum-containing Leibovitz's L-15 medium (+P/S). […] Cell viability was detected using the Promega CellTiter-Glo kit, the kit reflected cell viability by directly measuring intracellular ATP content.” for “follows:”

A further test deals with BT-549. The test is described as follows: Cell viability (CellTiter-Glo), BT-549. It counts as cell-based. As to conditions: Homo sapiens; BT-549 cell line, 3-4 days of culture. The procedure: as §1
Cell line BT-549 (ATCC, No. HTB-122) was cultured in RPMI1640 medium containing 10% fetal bovine serum and 0.023 IU/ml human insulin (+P/S).
as §2

Turning to `CCc1n(CC(=O)O[C@@H]2C[C@H](C)CC[C@H]2C(C)C)c2ccccc2[n+]1C.[Cl-]` [Gboxin], the concentration for half-maximal inhibition (IC50) came out at 8.84 µM in the test with NCI-H1155; 16 µM in the test on NCI-H1793; 9.72 µM with Daoy; 4.17 µM with SNU-398; 2.74 µM in the test on OCI-AML-5; 22.4 µM in the test with NCI-H1651. The 50% inhibitory concentration (IC50) was more than 30 µM with SNU-449; 9.91 µM in the test on DU 145; 1.55 µM in the test on ATN-1; 4.34 µM in the test on NCI-H1048; 25.7 µM in the test with C3A; 0.942 µM in the test on MDA-MB-453. The 50% inhibitory concentration (IC50) in the test on BT-549 came out at 3.28 µM. For the same compound, the “sensitivity of NCI-H82 cell to the inhibitor” value in test [1] (DNMT1 expression knocked down (sh-DNMT1 #1 or sh-DNMT1 #2) vs Vector) and in test [1] (NNMT protein overexpressed alone (ov-NNMT) vs Vector) was “decreased” throughout. The “sensitivity of NCI-H82 tumor cells to the inhibitor” value in [1] (NNMT overexpressed and DNMT1 knocked down simultaneously (ov-NNMT/sh-DNMT1 #1 and #2)) was “decreased more significantly”. In addition, the “oxygen consumption of NCI-H82 cells” value in test [2] is on record as “significantly inhibit”.
